Drawing on patent publication US5358961A, “Pyrrolidine derivatives” (Jin Ro Limited, priority 1991, dated 1994), this text covers inhibition for eight compounds.

SMILES strings stand for the structures.

For orientation: inhibition means the percentage by which the read-out fell short of the control. Lower therefore signals little suppression.

The test has as its target T1, angiotensin converting enzyme (Oryctolagus cuniculus, UniProt P12822).
T1 construct: Rabbit lung acetone powder was extracted with 10 volumes of 50 mM sodium borate buffer; from tissue; host or cells: rabbit lung (acetone powder, borate buffer extract, 40,000 x g supernatant)
T1 sequence (P12822 34-1310): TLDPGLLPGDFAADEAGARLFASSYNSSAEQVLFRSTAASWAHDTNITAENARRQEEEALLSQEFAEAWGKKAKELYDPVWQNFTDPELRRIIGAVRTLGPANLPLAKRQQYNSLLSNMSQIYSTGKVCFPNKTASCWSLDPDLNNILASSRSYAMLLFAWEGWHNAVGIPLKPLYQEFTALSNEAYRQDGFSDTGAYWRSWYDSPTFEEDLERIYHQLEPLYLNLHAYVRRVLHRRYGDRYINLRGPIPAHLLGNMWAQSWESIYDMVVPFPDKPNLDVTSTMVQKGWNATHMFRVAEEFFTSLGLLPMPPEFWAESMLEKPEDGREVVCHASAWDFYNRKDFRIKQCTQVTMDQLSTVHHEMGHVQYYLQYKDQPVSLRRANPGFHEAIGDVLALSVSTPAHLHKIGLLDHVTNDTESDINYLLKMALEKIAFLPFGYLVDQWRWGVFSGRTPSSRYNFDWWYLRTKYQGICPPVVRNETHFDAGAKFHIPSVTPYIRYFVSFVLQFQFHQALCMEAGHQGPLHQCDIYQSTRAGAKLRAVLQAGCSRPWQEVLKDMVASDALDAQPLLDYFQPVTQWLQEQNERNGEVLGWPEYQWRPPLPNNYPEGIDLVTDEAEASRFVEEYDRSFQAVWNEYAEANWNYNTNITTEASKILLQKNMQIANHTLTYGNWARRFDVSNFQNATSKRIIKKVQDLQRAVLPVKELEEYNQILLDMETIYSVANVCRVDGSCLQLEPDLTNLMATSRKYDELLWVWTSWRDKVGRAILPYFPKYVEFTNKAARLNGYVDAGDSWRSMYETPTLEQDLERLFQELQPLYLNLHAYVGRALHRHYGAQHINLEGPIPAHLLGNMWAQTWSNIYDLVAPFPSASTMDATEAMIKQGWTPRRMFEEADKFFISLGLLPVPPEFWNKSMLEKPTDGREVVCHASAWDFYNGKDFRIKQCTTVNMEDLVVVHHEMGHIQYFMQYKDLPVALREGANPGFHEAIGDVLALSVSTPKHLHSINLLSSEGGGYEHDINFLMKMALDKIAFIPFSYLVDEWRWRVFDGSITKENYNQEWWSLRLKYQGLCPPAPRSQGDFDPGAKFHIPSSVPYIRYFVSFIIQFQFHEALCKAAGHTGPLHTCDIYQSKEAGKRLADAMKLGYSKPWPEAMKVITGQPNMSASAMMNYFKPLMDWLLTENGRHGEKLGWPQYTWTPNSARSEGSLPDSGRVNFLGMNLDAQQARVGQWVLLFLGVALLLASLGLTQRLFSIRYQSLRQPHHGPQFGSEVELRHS
Kind of test: Inhibitory activity of angiotensin converting enzyme (rabbit lung acetone powder extract, HHL substrate, modified Cushman method). The class given is biochemical. To be noted: preincubated 30 minutes, reacted with HHL at 37° C. for 30 minutes; for inhibition at 0.0002 µM: inhibitor concentration 2 × 10^-4 μM; for inhibition at 20 pM: inhibitor concentration 2 × 10^-5 μM. Here is the method: The inhibitory activity of angiotensin converting enzyme for the compounds of this invention prepared by above examples was determined as follows;
The inhibitory activity was determined by using a modification of the method of Cushman, et al. [Biochemical Pharmacology, 20, 1637(1971)] Rabbit lung acetone powder was extracted with 10 volumes of 50 mM sodium borate buffer solution(pH 8.3) by homogenization at 4° C. and centrifuged for 40 minutes at 40,000 ×g.
The supernatant which contained angiotensin converting enzyme was used for ACE assay. Hippuryl-L-histidyl-L-leucine(HHL) was used as a substrate of enzymatic reaction and the reaction was determined in 13×100 mm of test tube.
The assay mixture (total volume, 0.25 ml) consisted of 50 mM sodium borate buffer (pH 8.3), 300 mM sodium chloride, and 5 mM HHL(pH 8.3), and they were reacted by addition of 0~10 mU of rabbit lung acetone powder extract for 30 minutes at 37° C.
The volume of enzyme extract was 0.15 ml or below and the reaction solution was preincubated at 37° C. for 30 minutes without the substrate and after adding HHL reacted for 30 minutes, the reaction was terminated by addition of 0.25 ml of 1N-HCl aqueous solution.
In the case of blank assay, hydrochloric acid was added before adding the enzyme extract. Hippuric acid was extracted with 1.5 ml of ethyl acetate which was separated by centrifuging at 3,000 rpm for 10 minutes. 1.0ml of ethyl acetate layer was transferred into the test tube and evaporated at 90° C. for 1 hour on temp-block.
Hippuric acid was dissolved in 1.0 ml of 50 mM sodium borate buffer (pH 8.3) and qualified from its absorbance at 228 nm. The final concentration of inhibitor was adjusted to 2×10^-4, 2×10^-5 μM with sodium borate buffer solution(pH 8.3) and reaction solution without the substrate was preincubated for 30 minutes and after adding the substrate, it was reacted at 37° C. for 30 minutes and terminated with 1N-HCl.
The synthesized inhibitors with non-water soluble property were dissolved by ultrasonic treatment.

As to `CCCCCCCCCCCCCCCCCCOCC(COP(=O)(O)SC[C@@H](C)C(=O)N1CCC[C@H]1C(=O)OCc1ccc([N+](=O)[O-])cc1)OC(=O)CCCCCCCCCCCCCCC` (mixture of isomers) [Compound 1, rac-1-O-octadecyl-2-O-palmitoyl-glyceryl-3-phosphorylcaptopril-p-nitrobenzyl ester], the inhibition at 0.0002 µM came out at 77% and the inhibition at 20 pM was 39%.
The like results for `CCCCCCCCCCCCCCCCCCOCC(COP(=O)(O)SC[C@@H](C)C(=O)N1CCC[C@H]1C(=O)O)OC(=O)CCCCCCCCCCCCCCC` (mixture of isomers) [Compound 2, rac-1-O-octadecyl-2-O-palmitoyl-glyceryl-3-phosphoryl captopril] were, in that order, 97% and 80%.
Regarding `CCCCCCCCCCCCCCCCCCOCC(COP(=O)(O)SC[C@@H](C)C(=O)N1CCC[C@H]1C(=O)OCc1ccc([N+](=O)[O-])cc1)OC(C)=O` (mixture of isomers) [Compound 3, rac-1-O-octadecyl-2-O-acetyl-glyceryl-3-phosphoryl captopril-p-nitrobenzyl ester], the inhibition at 0.0002 µM amounted to 85% and the inhibition at 20 pM amounted to 60%.
Taken in the same sequence, the figures for `CCCCCCCCCCCCCCCCCCOCC(COP(=O)(O)SC[C@@H](C)C(=O)N1CCC[C@H]1C(=O)O)OC(C)=O` (mixture of isomers) [Compound 4, rac-1-O-octadecyl-2-O-acetyl-glyceryl-3-phosphoryl captopril] were 98% and 98%.
Turning to `CCCCCCCCCCCCCCCCCCSCC(COP(=O)(O)SC[C@@H](C)C(=O)N1CCC[C@H]1C(=O)OCc1ccc([N+](=O)[O-])cc1)OC(=O)CCCCCCCCCCCCCCC` (mixture of isomers) [Compound 5, rac-1-S-octadecyl-2-O-palmitoyl-thioglyceryl-3-phosphoryl captopril-p-nitrobenzyl ester], the inhibition at 0.0002 µM is 31% and the inhibition at 20 pM is 4%.
`CCCCCCCCCCCCCCCCCCSCC(COP(=O)(O)SC[C@@H](C)C(=O)N1CCC[C@H]1C(=O)O)OC(=O)CCCCCCCCCCCCCCC` (mixture of isomers) [Compound 6, rac-1-S-octadecyl-2-O-palmitoyl-thioglyceryl-3-phosphoryl captopril]: 0.0002 µM produced 92% inhibition and 20 pM produced 70% inhibition.
Taken in the same sequence, the figures for `CCCCCCCCCCCCCCCCCCSCC(COP(=O)(O)SC[C@@H](C)C(=O)N1CCC[C@H]1C(=O)OCc1ccc([N+](=O)[O-])cc1)OC(C)=O` (mixture of isomers) [Compound 7, rac-1-S-octadecyl-2-O-acetyl-thioglyceryl-3-phosphoryl captopril-p-nitrobenzyl ester] were 78% and 43%.
Taken in the same sequence, the figures for `CCCCCCCCCCCCCCCCCCSCC(COP(=O)(O)SC[C@@H](C)C(=O)N1CCC[C@H]1C(=O)O)OC(C)=O` (mixture of isomers) [Compound 8, rac-1-S-octadecyl-2-O-acetyl-thioglyceryl-3-phosphoryl captopril] were 90% and 80%.
